The values that follow come from ChEMBL document CHEMBL1255236, “Hepatotoxicity observed in clinical trials of aplaviroc (GW873140)” (Antimicrob Agents Chemother, 2008).

For data set [1], the system named is Human immunodeficiency virus 1. Description: Antiviral activity against Human immunodeficiency virus 1 infected in human assessed as log reduction in HIV-1 RNA level at 600 mg/kg, BID after 10 days. The data set is classed as functional.
For data set [2], the system named is Rattus norvegicus. The experiment in a line: Hepatotoxicity in rat assessed as increase in liver ALT level at >500 mg/kg/day. The data set is classed as toxicity, organism-based. The following applies: in vivo.
A further data set has as its system Monkey. The experiment in a line: Hepatotoxicity in monkey assessed as increase in liver ALT level at 2000 mg/kg/day. Format: toxicity, organism-based. The following applies: cercopithecidae, in vivo.
Data set [3] in a line: AUC (0 to 24 hrs) in Human immunodeficiency virus 1 infected human at 600 mg/kg, BID. The data set is classed as ADME, organism-based. On the set-up: time < 24 hr, dose 600 mg/kg. The note with it: plasma.
The nature of data set [4]: AUC (0 to 24 hrs) in Human immunodeficiency virus 1 infected human at 800 mg/kg, BID. The data set is classed as ADME, organism-based. On the set-up: time < 24 hr, dose 800 mg/kg. The note with it: plasma.
Data set [5] in a line: AUC (0 to 24 hrs) in Human immunodeficiency virus 1 infected human at 200 mg/kg, BID. The note with it: plasma. On the set-up: time < 24 hr, dose 200 mg/kg. Format: ADME, organism-based.
A short description of data set [6]: AUC (0 to 24 hrs) in Human immunodeficiency virus 1 infected human at 400 mg/kg, BID. Format: ADME, organism-based. More on the design: time < 24 hr, dose 400 mg/kg. The following applies: plasma.
Data set [7] in a line: AUC (0 to 24 hrs) in Human immunodeficiency virus 1 infected human at 800 mg/kg, QD. Format: ADME, organism-based. More on the design: time < 24 hr, dose 800 mg/kg. The note with it: plasma.
The nature of data set [8]: Half life in healthy human at 200 to 800 mg/kg, BID. The following applies: in vivo. Format: ADME, organism-based. More on the design: dose 200-800 mg/kg.
Data set [9] concerns Rattus norvegicus. Description: Hepatotoxicity in rat assessed as increase in liver bilirubin level at >500 mg/kg/day. The data set is classed as toxicity, organism-based. The following applies: in vivo.

Take `CCCCN1C(=O)[C@@H]([C@H](O)C2CCCCC2)NC(=O)C12CCN(Cc1ccc(Oc3ccc(C(=O)O)cc3)cc1)CC2` [APLAVIROC]: the FC in data set [1] is reported as 1.66. Besides, the Activity result with Rattus norvegicus [2] is “Toxic”; with Monkey, “Non-toxic”; with Rattus norvegicus [9], “Toxic”. For the same molecule, the exposure (AUC) – broadly, concentration integrated over time – at 24 h in [3] worked out at 2100 ng·h/mL; in [4], 3410 ng·h/mL; in data set [5], 2010 ng·h/mL; in [6], 6060 ng·h/mL; in data set [7], 5840 ng·h/mL. In addition, the half-life (commonly the time in which the quantity being followed falls by half) in data set [8] was 3 h.
